Data: paper PMC11990103, “Anticancer Activity and Safety Profile of Novel 1-(4-Fluorophenoxyacetyl)-4-substituted Thio/Semicarbazide Derivatives” (Molecules, 2025)

Tests used:
zebrafish embryos = test system: zebrafish embryos; parameters: method as in PMID 36436567; conditions: cited from earlier work
BJ fibroblasts = experiment: MTT cytotoxicity assay, normal cells; format: cell-based, human; conditions: 48 h treatment, read-out: IC50 BJ (fibroblast)
Protocol: (§1) These cancer cell lines comprised prostate cancer (PC-3, DU-145, LNCaP), melanoma (SK-MEL28, A375, G-361), breast cancer (MCF-7, MDA-MB-231), and lung cancer (NCI-H1563). The MTT assay was carried out across a wide range of concentrations for 48 h.
(§2) The research was conducted on one primary cell line: BJ (fibroblast) and four types of cancerous ones: three prostate cancer cell lines (PC-3, DU-145, LNCaP); 3 Melanoma cell lines (MEL-28, A375, G-361); 2 breast cancer cell lines (MCF-7, MDA-MB-23) and one lung cancer cell line (NCI-H1563). All cell lines were obtained from the American Type Culture Collection (ATCC, Manassas, VA, USA) and were grown in media (Corning, New York, NY, USA) according to ATCC guidelines. The culture media was enriched with 10% heat-inactivated fetal bovine serum (Life Technologies, Carlsbad, CA, USA) and antibiotics: penicillin (100 units) and streptomycin (100 μg/mL) from Sigma-Aldrich (St. Louis, MO, USA). The cells were incubated at 37 °C with 5% CO2 in air.
(§3) The cytotoxic analysis of thiosemicarbazides (TSC) (AB1–AB6) and semicarbazides (SC) (AB7–AB12) was conducted in various concentrations. […] The cells were treated with compounds or DMSO as a vehicle in control cultures for 48h. IC50 values were determined using the AAT Bioquest IC50 calculator (AAT Bioquest, Inc., Pleasanton, CA, USA, Quest Graph™ EC50 Calculator. https://www.aatbio.com/tools/ec50-calculator) (accessed on 7 October 2024).
(§4) The cytotoxic activity of the thiosemicarbazides and semicarbazides was measured using the MTT colorimetric assay (MTT Cell Proliferation Assay Kit—Invitrogen, Waltham, MA, USA). The cells were seeded in the 96-well plates at a density of 1.5 × 10^5 cells/mL. After reaching 70–80% of confluence, the tested compounds in a wide range of concentrations were added. Plates were incubated for 48 h at 37 °C in 5% CO2 air. Then, […] tetrazolium salt (3-(4,5-dimethylthiazol-2-yl)-2,5-diphenyltetrazolium bromide)—MTT reagent (0.5 mg/mL) dissolved in PBS was added to each well for 4 h. The MTT solution was then removed from above the water-insoluble purple formazan crystals, which were then dissolved in DMSO (dimethyl sulfoxide, […]; POCH, Gliwice, Poland). The absorbance value of obtained solutions was measured using a PowerWave ™ microplate spectrophotometer (Bio-Tek Instruments, Winooski, VT, USA) at a wavelength of 570 nm. Each cytotoxicity assay was repeated three times in triplicates.

A375 melanoma cell line = experiment: MTT cytotoxicity assay; format: cell-based, human; conditions: 48 h treatment
Protocol: as §1, §2, §3, §4

[1] = test system: DU-145 prostate cancer cell line; experiment: MTT cytotoxicity assay; format: cell-based, human; conditions: 48 h treatment
Protocol: as §1, §2, §3, §4

G-361 melanoma cell line = experiment: MTT cytotoxicity assay; format: cell-based, human; conditions: MTT, 48 h treatment
Protocol: as §1, §2, §3, §4

[2] = test system: LNCaP prostate cancer cell line; experiment: MTT cytotoxicity assay; format: cell-based, human; conditions: MTT, 48 h treatment
Protocol: as §1, §2, §3, §4

[3] = test system: MCF-7 breast cancer cell line; experiment: MTT cytotoxicity assay; format: cell-based, human; conditions: 48 h treatment
Protocol: as §1, §2, §3, §4

[4] = test system: MDA-MB-231 breast cancer cell line; experiment: MTT cytotoxicity assay; format: cell-based, human; conditions: 48 h treatment
Protocol: as §1, §2, §3, §4

[5] = test system: NCI-H1563 lung cancer cell line; experiment: MTT cytotoxicity assay; format: cell-based, human; conditions: 48 h treatment
Protocol: as §1, §2, §3, §4

[6] = test system: PC-3 prostate cancer cell line; experiment: MTT cytotoxicity assay; format: cell-based, human; conditions: 48 h treatment
Protocol: as §1, §2, §3, §4

[7] = test system: SK-MEL28 melanoma cell line; experiment: MTT cytotoxicity assay; format: cell-based, human; conditions: 48 h treatment
Protocol: as §1, §2, §3, §4

[8] = test system: tested cancer cell lines (PC-3, DU-145, LNCaP, SK-MEL28, A375, G-361, MCF-7, MDA-MB-231, NCI-H1563); experiment: MTT cytotoxicity assay, panel of nine cancer cell lines as a whole; format: cell-based, human
Protocol: as §1
The research was conducted on one primary cell line: BJ (fibroblast) and four types of cancerous ones: three prostate cancer cell lines (PC-3, DU-145, LNCaP); 3 Melanoma cell lines (MEL-28, A375, G-361); 2 breast cancer cell lines (MCF-7, MDA-MB-23) and one lung cancer cell line (NCI-H1563). […]
The cytotoxic analysis of thiosemicarbazides (TSC) (AB1–AB6) and semicarbazides (SC) (AB7–AB12) was conducted in various concentrations. […] IC50 values were determined using the AAT Bioquest IC50 calculator (AAT Bioquest, Inc., Pleasanton, CA, USA, Quest Graph™ EC50 Calculator. https://www.aatbio.com/tools/ec50-calculator) (accessed on 7 October 2024).
The cytotoxic activity of the thiosemicarbazides and semicarbazides was measured using the MTT colorimetric assay (MTT Cell Proliferation Assay Kit—Invitrogen, Waltham, MA, USA). […] The absorbance value of obtained solutions was measured using a PowerWave ™ microplate spectrophotometer (Bio-Tek Instruments, Winooski, VT, USA) at a wavelength of 570 nm. […]

G-361 melanoma cells = test system: G-361 melanoma cells; parameters: method as in PMID 35204651; conditions: cited from earlier work
[9] = parameters: method as in PMID 14912098; conditions: as toxic as thiosemicarbazide; cited from earlier work

CCNC(=O)NNC(=O)c1ccc([N+](=O)[O-])cc1 [1-(4-nitrobenzoyl)-4-ethylsemicarbazide]
morphological abnormalities, including cardiotoxicity (zebrafish embryos): do not cause morphological abnormalities, including cardiotoxicity

CCCCCCNC(=O)NNC(=O)Cc1ccc([N+](=O)[O-])cc1 [1-[(4-nitrophenyl)acetyl]-4-hexylsemicarbazide]
morphological abnormalities, including cardiotoxicity (zebrafish embryos): do not cause morphological abnormalities, including cardiotoxicity

O=C(COc1ccc(F)cc1)NNC(=S)Nc1ccccc1 [AB1]
IC50 (BJ fibroblasts): 498 µM
IC50 (A375 melanoma cell line): > 500 µM
IC50 [1]: > 500 µM
IC50 (G-361 melanoma cell line): 369 µM
IC50 [2]: 252 µM
IC50 [3]: > 500 µM
IC50 [4]: > 500 µM
IC50 [5]: > 500 µM
IC50 [6]: > 500 µM
IC50 [7]: > 500 µM
IC50 ([8]; MTT, 48 h, thiosemicarbazides tested 500 to 100 μM, semicarbazides 100 μM to 1 μM, read-out: IC50 in the tested cancer cell lines (stated for the panel)): > 500 µM

O=C(COc1ccc(F)cc1)NNC(=S)Nc1cccc(Cl)c1 [AB3]
IC50 (BJ fibroblasts): 422 µM
IC50 (A375 melanoma cell line): 400 µM
IC50 [1]: 268 µM
IC50 (G-361 melanoma cell line): 248 µM
IC50 [2]: 175 µM
IC50 [3]: 456 µM
IC50 [4]: 495 µM
IC50 [5]: 437 µM
IC50 [6]: 467 µM
IC50 [7]: 302 µM

O=C(COc1ccc(F)cc1)NNC(=S)Nc1ccc(Cl)cc1 [AB4]
IC50 (BJ fibroblasts): 313 µM
IC50 (A375 melanoma cell line): 399 µM
IC50 [1]: 297 µM
IC50 (G-361 melanoma cell line): 265 µM
IC50 [2]: 257 µM
IC50 [3]: 343 µM
IC50 [4]: 421 µM
IC50 [5]: 293 µM
IC50 [6]: 355 µM
IC50 [7]: 322 µM

O=C(COc1ccc(F)cc1)NNC(=S)Nc1ccc(Cl)cc1Cl [AB5]
IC50 (BJ fibroblasts): 303 µM
IC50 (A375 melanoma cell line): 384 µM
IC50 [1]: 401 µM
IC50 (G-361 melanoma cell line): 276 µM
IC50 [2]: 154 µM
IC50 [3]: 421 µM
IC50 [4]: 445 µM
IC50 [5]: 372 µM
IC50 [6]: 395 µM
IC50 [7]: 297 µM

O=C(COc1ccc(F)cc1)NNC(=S)Nc1ccc(Cl)c(Cl)c1 [AB6]
IC50 (BJ fibroblasts): < 100 µM
IC50 (A375 melanoma cell line): 257 µM
IC50 [1]: 343 µM
IC50 (G-361 melanoma cell line): 210 µM
IC50 [2]: 121 µM
IC50 [3]: 240 µM
IC50 [4]: 334 µM
IC50 [5]: 242 µM
IC50 [6]: 388 µM
IC50 [7]: 195 µM
selectivity index (SI) ([8]; IC50 normal cells (BJ) divided by IC50 cancer cells, cell line not specified): < 1

N.N.[Cl][Pt][Cl] [Cisplatin, reference compound]
IC50 (A375 melanoma cell line): 18.2 µM
IC50 [1]: 64.1 µM
IC50 (G-361 melanoma cell line): 12.5 µM
IC50 [2]: 31.5 µM
IC50 [3]: 22.6 µM
IC50 [4]: 38.7 µM
IC50 [5]: 2.78 µM
IC50 [6]: 52.2 µM
IC50 [7]: 25.8 µM

CSc1ccc(NC(=S)NNC(=O)COc2ccc(Cl)cc2Cl)cc1 [PK2]
population of cells in the sub-G1 phase (G-361 melanoma cells): increase

NNC(N)=O [semicarbazide]
toxicity relative to thiosemicarbazide [9]: about 1/20
